In patent US20250179059A1 (The Regents of the University of California, priority 2021, published 2025):
Read-outs that look alike come from different tables or passages of the source.

What was measured:
[1] = test system: human SKM-1 acute myeloid leukemia cells; test: SKM-1 antiproliferation cell-based assay (ATPlite); settings: Homo sapiens
How it was run: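 Log-phase cells in RPMI 1640/15% FBS were seeded at 34722 cells/mL and exposed for 4 days to nine-concentration DMSO serial dilutions in triplicate. Viability was read as ATP luminescence (ATPlite 1step), and IC50 values came from variable-slope non-linear regression.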

[2] = target: T1, human BRD4 bromodomain II (Homo sapiens, UniProt O60885); test: Bromodomain binding assay (AlphaScreen), BRD4 BDII
T1 construct: human BRD4 bromodomain II [based on Genbank NM_058243, residues 349-460]; host or cells: E. coli
How it was run: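 Tagged BRD4 BDI or BDII constructs, expressed in E. coli, competed against a K5/K8/K12/K16-acetylated biotin-H4 peptide. Proximity signal between bead pairs after room-temperature incubations gave concentration-response curves, from which IC50 was derived.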

[3] = SKM-1, 96 h, SKM-1 antiproliferation assay, 4 days, Table C2
[4] = AlphaScreen assay, Table C2, read-out: BRD4 BDII IC50
[5] = SKM-1, SKM-1 antiproliferation assay
[6] = BRD4 BDII AlphaScreen assay, read-out: BRD4 BD2 IC50

| Structure (SMILES) | GI50 [1, 3] | IC50 [2, 4] | GI50 [1, 5] | IC50 [2, 6] |
| --- | --- | --- | --- | --- |
| CN1CCN(c2cc(-c3cc(F)cc(-c4ccc(-n5ccn(C)c5=O)c(Cl)c4)c3O)cc3c2cnn3C)CC1 [Example 604, 1-(3-chloro-5′-fluoro-2′-hydroxy-3′-(1-methyl-4-(4-methylpiperazin-1-yl)-1H-indazol-6-yl)-[1,1′-biphenyl]-4-yl)-3-methyl-1H-imidazol-2(3H)-one] | 0.3 to 30 nM | 0.01 to 1 nM | – | – |
| Cn1ccn(-c2ccc(-c3cc(F)cc(-c4ccnc(N5CC6NCCOC6C5)c4)c3O)cc2Cl)c1=O (stereo not shown) [Example 648, 1-(3-chloro-5′-fluoro-3′-(2-(hexahydropyrrolo[3,4-b][1,4]oxazin-6(2H)-yl)pyridin-4-yl)-2′-hydroxy-[1,1′-biphenyl]-4-yl)-3-methyl-1H-imidazol-2(3H)-one] | 0.3 to 30 nM | 0.01 to 1 nM | – | – |
| CN1CCN(c2ccc(-c3cc(F)cc(-c4ccnc(N5CCNC5=O)c4)c3O)cc2Cl)C1=O [Example 354, 1-(3-chloro-5′-fluoro-2′-hydroxy-3′-(2-(2-oxoimidazolidin-1-yl)pyridin-4-yl)-[1,1′-biphenyl]-4-yl)-3-methylimidazolidin-2-one] | ≥ 3000 nM | > 100 nM | – | – |
| C[C@@H]1CN(c2cc(-c3cccc(-c4ccc(N5CCCC5=O)c(Cl)c4)c3O)ccn2)CCN1 [Example 253, (R)-1-(3-chloro-2′-hydroxy-3′-(2-(3-methylpiperazin-1-yl)pyridin-4-yl)-[1,1′-biphenyl]-4-yl)pyrrolidin-2-one] | 300 to 3000 nM | 1 to 10 nM | – | – |
| CC(=O)Nc1ccc(-c2cccc(-c3ccnc(N4CCC(O)C4)c3)c2O)cc1F (stereo not shown) [Example 199, N-(3-fluoro-2′-hydroxy-3′-(2-(3-hydroxypyrrolidin-1-yl)pyridin-4-yl)-[1,1′-biphenyl]-4-yl)acetamide] | 300 to 3000 nM | 1 to 10 nM | – | – |
| CN1CCN(c2ccc(-c3cc(F)cc(-c4ccnc(N5CCC(N)CC5)c4)c3O)cc2Cl)C1=O [Example 350, 1-(3′-(2-(4-aminopiperidin-1-yl)pyridin-4-yl)-3-chloro-5′-fluoro-2′-hydroxy-[1,1′-biphenyl]-4-yl)-3-methylimidazolidin-2-one] | 30 to 300 nM | 10 to 100 nM | – | – |
| Cn1ccn(-c2ccc(-c3cc(F)cc(-c4cc(N5CCNCC5)c5cn[nH]c5c4)c3O)cc2Cl)c1=O [Example 526, 1-(3-chloro-5′-fluoro-2′-hydroxy-3′-(4-(piperazin-1-yl)-1H-indazol-6-yl)-[1,1′-biphenyl]-4-yl)-3-methyl-1H-imidazol-2(3H)-one] | 0.3 to 30 nM | 1 to 10 nM | – | – |
| CN1CCN(c2ccc(-c3cc(F)cc(-c4ccnc(N5CC[C@H](N)C5)c4)c3O)cc2Cl)C1=O [Example 353, (S)-1-(3′-(2-(3-aminopyrrolidin-1-yl)pyridin-4-yl)-3-chloro-5′-fluoro-2′-hydroxy-[1,1′-biphenyl]-4-yl)-3-methylimidazolidin-2-one] | 30 to 300 nM | 1 to 10 nM | – | – |
| CN1C2CCC1CN(c1cncc(-c3cc(F)cc(-c4ccc(-n5ccn(C)c5=O)c(Cl)c4)c3O)c1)C2 [Example 514, 1-(3-chloro-5′-fluoro-2′-hydroxy-3′-(5-(8-methyl-3,8-diazabicyclo[3.2.1]octan-3-yl)pyridin-3-yl)-[1,1′-biphenyl]-4-yl)-3-methyl-1H-imidazol-2(3H)-one] | 0.3 to 30 nM | 1 to 10 nM | – | – |
| CN1CCOC2CN(c3cc(-c4cc(F)cc(-c5ccc(-n6ccn(C)c6=O)c(Cl)c5)c4O)ccn3)CC21 (stereo not shown) [Example 649, 1-(3-chloro-5′-fluoro-2′-hydroxy-3′-(2-(4-methylhexahydropyrrolo[3,4-b][1,4]oxazin-6(2H)-yl)pyridin-4-yl)-[1,1′-biphenyl]-4-yl)-3-methyl-1H-imidazol-2(3H)-one] | 30 to 300 nM | 1 to 10 nM | – | – |
| Cn1ccn(-c2ccc(-c3cc(F)cc(-c4cc(N5CCOCC5)c5cn[nH]c5c4)c3O)cc2Cl)c1=O [Example 590, 1-(3-chloro-5′-fluoro-2′-hydroxy-3′-(4-morpholino-1H-indazol-6-yl)-[1,1′-biphenyl]-4-yl)-3-methyl-1H-imidazol-2(3H)-one] | 30 to 300 nM | 1 to 10 nM | – | – |
| CC(=O)Nc1ccc(-c2cccc(-c3cncc(N4CCNCC4)c3)c2O)cc1F [Example 189, N-(3-fluoro-2′-hydroxy-3′-(5-(piperazin-1-yl)pyridin-3-yl)-[1,1′-biphenyl]-4-yl)acetamide] | 30 to 300 nM | 1 to 10 nM | – | – |
| O=C1CCCN1c1ccc(-c2cc(Cl)cc(-c3ccnc(N4CCNCC4)c3)c2O)cc1F [Example 269, 1-(5′-chloro-3-fluoro-2′-hydroxy-3′-(2-(piperazin-1-yl)pyridin-4-yl)-[1,1′-biphenyl]-4-yl)pyrrolidin-2-one] | 300 to 3000 nM | 1 to 10 nM | – | – |
| CC(=O)Nc1ccc(-c2cccc(-c3cc(C)nc(N4CCNCC4)c3)c2O)cc1F [Example 244, N-(3-fluoro-2′-hydroxy-3′-(2-methyl-6-(piperazin-1-yl)pyridin-4-yl)-[1,1′-biphenyl]-4-yl)acetamide] | 30 to 300 nM | 1 to 10 nM | – | – |
| Cn1ccn(-c2ccc(-c3cc(F)cc(-c4ccnc(N5CC[S+]([O-])CC5)c4)c3O)cc2Cl)c1=O [Example 690, 1-(3-chloro-5′-fluoro-2′-hydroxy-3′-(2-(1-oxidothiomorpholino)pyridin-4-yl)-[1,1′-biphenyl]-4-yl)-3-methyl-1H-imidazol-2(3H)-one] | 30 to 300 nM | 0.01 to 1 nM | – | – |
| O=c1occn1-c1ccc(-c2cc(F)cc(-c3ccnc(N4CCNCC4)c3)c2O)cc1Cl [Example 505, 3-(3-chloro-5′-fluoro-2′-hydroxy-3′-(2-(piperazin-1-yl)pyridin-4-yl)-[1,1′-biphenyl]-4-yl)oxazol-2(3H)-one] | 30 to 300 nM | 1 to 10 nM | – | – |

Further lines, results first:

| GI50 [1, 3] | IC50 [2, 4] | GI50 [1, 5] | IC50 [2, 6] | Structure (SMILES) |
| --- | --- | --- | --- | --- |
| – | – | 0.3 to 30 nM | 1 to 10 nM | [2H]C([2H])([2H])C(=O)Nc1ccc(-c2cc(C)nc(-c3cccc(N4CCN(C(C)(C)C)CC4)c3)c2O)cc1Cl [Example 1008, N-(4-(2-(3-(4-(tert-butyl)piperazin-1-yl)phenyl)-3-hydroxy-6-methylpyridin-4-yl)-2-chlorophenyl)-2,2,2-trideuteroacetamide] |
| – | – | > 3000 nM | > 100 nM | CC(=O)Nc1ncc(-c2cc(F)cc(-c3cccc(N4CCN(C(C)(C)C)CC4)c3)c2O)cn1 [Example 907, N-(5-(3′-(4-(tert-butyl)piperazin-1-yl)-5-fluoro-2-hydroxy-[1,1′-biphenyl]-3-yl)pyrimidin-2-yl)acetamide] |
| 0.3 to 30 nM | 0.01 to 1 nM | – | – | Cn1ccn(-c2ccc(-c3cc(F)cc(-c4cncc(N5CCC(C)(N)C5)c4)c3O)cc2Cl)c1=O (stereo not shown) [Example 745, 1-(3′-(5-(3-amino-3-methylpyrrolidin-1-yl)pyridin-3-yl)-3-chloro-5′-fluoro-2′-hydroxy-[1,1′-biphenyl]-4-yl)-3-methyl-1H-imidazol-2(3H)-one] |
| – | – | 30 to 300 nM | 0.01 to 1 nM | Cn1ccn(-c2ccc(-c3cc(F)cc(-c4ccnc(N5CCS(=N)(=O)CC5)c4)c3O)cc2Cl)c1=O [Example 915, 1-(3-chloro-5′-fluoro-2′-hydroxy-3′-(2-(1-imino-1-oxidothiomorpholino)pyridin-4-yl)-[1,1′-biphenyl]-4-yl)-3-methyl-1H-imidazol-2(3H)-one] |
| 0.3 to 30 nM | 1 to 10 nM | – | – | CC(C)N1CCN(c2cc(-c3cc(F)cc(-c4ccc(-n5ccn(C)c5=O)c(Cl)c4)c3O)cnc2C(F)F)CC1 [Example 831, 1-(3-chloro-3′-(6-(difluoromethyl)-5-(4-isopropylpiperazin-1-yl)pyridin-3-yl)-5′-fluoro-2′-hydroxy-[1,1′-biphenyl]-4-yl)-3-methyl-1H-imidazol-2(3H)-one] |
| – | – | 0.3 to 30 nM | 1 to 10 nM | COCC(C)(C)N1CCN(c2cc(-c3cc(F)cc(-c4ccc(-n5ccn(C)c5=O)c(Cl)c4)c3O)cnc2OC)CC1 [Example 850, 1-(3-Chloro-5′-fluoro-2′-hydroxy-3′-(6-methoxy-5-(4-(1-methoxy-2-methylpropan-2-yl)piperazin-1-yl)pyridin-3-yl)-[1,1′-biphenyl]-4-yl)-3-methyl-1H-imidazol-2(3H)-one] |
| – | – | 0.3 to 30 nM | 0.01 to 1 nM | Cc1cc(-c2ccc(-n3ccn(C)c3=O)c(Cl)c2)c(O)c(-c2cccc(N3CCN(C(C)(C)C)CC3)c2)n1 [Example 916, 1-(4-(2-(3-(4-(tert-Butyl)piperazin-1-yl)phenyl)-3-hydroxy-6-methylpyridin-4-yl)-2-chlorophenyl)-3-methyl-1H-imidazol-2(3H)-one] |
| 0.3 to 30 nM | 0.01 to 1 nM | – | – | Cn1ccn(-c2ccc(-c3cc(F)cc(-c4ccnc(N5CC[C@@](C)(N)C5)c4)c3O)cc2Cl)c1=O [Example 716, (R)-1-(3′-(2-(3-amino-3-methylpyrrolidin-1-yl)pyridin-4-yl)-3-chloro-5′-fluoro-2′-hydroxy-[1,1′-biphenyl]-4-yl)-3-methyl-1,3-dihydro-] |
| – | – | 0.3 to 30 nM | 1 to 10 nM | Cn1ccn(-c2ccc(-c3cc(F)cc(-c4cnc(N)c(N5CCN(C(C)(C)C)CC5)c4)c3O)cc2Cl)c1=O [Example 914, 1-(3′-(6-amino-5-(4-(tert-butyl)piperazin-1-yl)pyridin-3-yl)-3-chloro-5′-fluoro-2′-hydroxy-[1,1′-biphenyl]-4-yl)-3-methyl-1H-imidazol-2(3H)-one] |
| – | – | 0.3 to 30 nM | 1 to 10 nM | COCC(C)(C)N1CCN(c2cc(-c3cc(F)cc(-c4ccc(-n5ccn(C)c5=O)c(Cl)c4)c3O)cnc2C)CC1 [Example 856] |
